In patent US4707491A, “Anticonvulsant γ-thiobutyrolactone derivatives” (Washington University, priority 1985, dated 1987):
Read-outs that look alike come from different tables or passages of the source.

Columns and labels:
[1] = test system: maximal electroshock seizures; test: Maximal Electroshock Seizure Test; format: in vivo, mice; conditions: for anti-MES activity: comparison of anticonvulsant profiles
Method: One recognized test which is frequently used for this purpose is to determine the capacity of the drug to modify the effects of maximal electric shock (MES) by inhibition of tonic hindlimb extension. See, for example, the test described by Swinyard and co-workers at J. Pharmacol. Exper. Therap. 106, 319-330 (1952).
(§1) Compounds were tested for anticonvulsant activity and toxicity in mice by the following tests.
Maximal Electroshock Seizure Test
At the time of peak effect of the test substance, a drop of 0.9% sodium chloride is applied to the eyes of each animal. Corneal electrodes are applied to the eyes, and an electrical stimulus of 50 mA is delivered for 0.2 sec. The animals are held by hand and released at the time of stimulation for observation of the seizure. Abolition of the hindleg tonic extension component is taken as the endpoint for this test.

[2] = test system: pentylenetetrazol seizures; test: Pentylenetetrazol Seizure Threshold Test; format: in vivo; conditions: Mus musculus, mice
Method: See, for example, Krall et al., Epilepsia 19, 409-428 (1978).
as §1
Pentylenetetrazol Seizure Threshold Test
The animals are placed in isolation cages and observed for the next 30 min. for the presence or absence of a seizure. A threshold convulsion is defined as one episode of clonic spasms that persists for at least a 5-sec period.

[3] = Rotorod Test for Toxicity; conditions: mouse, in vivo; mice; rotorod at 6 rpm, 10 min; at time of peak effect
Method: The rotorod test is a standard method used in mice to access neurotoxicity and is described, for example, by Krall et al., Epilepsia 19, 409-428 (1978).
as §1
Rotorod Test for Toxicity
This test is used in mice to assess neurotoxicity. Mice are placed on the rotorod, which rotates at 6 rpm, and tested for maintenance of their equilibrium for 10 min. All mice are pre-tested before test substance is given. At the time of peak effect of the test substance, mice are put back on the rotorod for 10 min. Neurological deficit (toxicity) is indicated by the inability of the animal to maintain its equilibrium for 10 min. on this rotating rod.

[4] = read-out: ED50 against (clonic) seizures produced by 85 mg/kg pentylenetetrazol, 85 mg/kg pentylenetetrazol IP, clonic (threshold) seizures

Row | Compound | anti-MES activity [1] | ED50 [2, 4] | ED50 ([2]; read-out: ED50 against clonic seizures produced by 100 mg/kg pentylenetetrazol, 100 mg/kg pentylenetetrazol IP, clonic seizures) | ED50 ([2]; read-out: ED50 against tonic seizures produced by 100 mg/kg pentylenetetrazol, 100 mg/kg pentylenetetrazol IP, tonic seizures) | protection against maximal electroshock seizures ([1]; mice, at doses up to 350 mg/kg) | TD50 [3] | ED50 ([1]; Mus musculus, read-out: ED50 against maximal electroshock seizures (MES))
1 | CCC1(C)CC(=O)NC1=O (centres unmarked) [ethosuximide] | do not |  |  |  |  |  | 
2 | CCCC(CCC)C(=O)O [valproic acid] | have anti-MES activity |  |  |  |  |  | 
3 | CCC1(C)CCOC1=O (stereo not drawn) [α-EMBL, α-ethyl-α-methyl-γ-butyrolactone] | do not | 226 mg/kg | 304 mg/kg | 250 mg/kg | No protection | ~350 mg/kg | 
4 | CC(C)C1CCSC1=O (stereo not drawn) [α-isopropyl-γ-thiobutyrolactone] |  | 137 mg/kg |  |  |  | 278 mg/kg | 240 mg/kg
